These results are taken from patent US20220323406A1, “METHODS AND COMPOSITIONS FOR DIFFERENTIATING STEM CELLS” (Massachusetts Institute of Technology, priority 2019, published 2022).

Assay [1] has as its system ENR+CD organoids (ISC to Paneth cell differentiation). As to the kind of experiment: Primary screen: CCh-stimulated lysozyme secretion LYZ.S, 2.5-D 384-well ENR+CD organoid differentiation. It counts as cell-based, mouse. The conditions noted are these: primary screen. From the text:
(§1) High-throughput screening.

Another assay has as its system ENR+CD organoids. The assay can be described thus: Primary screen: ATP (CellTiter-Glo 3D, CTG) cell number/viability, 2.5-D 384-well ENR+CD organoids.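 On all read-outs here: compounds given at plating and again on day 3 over a 6-day differentiation from ENR+CV stem-cell-enriched precursors, ATP measured on day 6, plate median as control.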 Particulars: primary screen; for Z.CTG: standard z score.
For assay [2], the system named is ENR+CD organoids (ISC to Paneth cell differentiation). As to the kind of experiment: Primary screen: basal (non-stimulated) lysozyme secretion LYZ.NS, 2.5-D 384-well ENR+CD organoid differentiation. It counts as cell-based, mouse. The conditions noted are these: primary screen; for Z.LYZ.NS: standard z score.
Description: as §1

Where [3] appears, read: 1st dose row of the treatment (0.08 uM by row order; dose not reprinted).
Setting [4] is: 2nd dose row of the treatment (0.40 uM by row order; dose not reprinted).
The mark [5] stands for this setting: 3rd dose row of the treatment (2.00 uM by row order; dose not reprinted).
Setting [6] is: 4th dose row of the treatment (10.00 uM by row order; dose not reprinted).

As for `CNC(=O)c1ccc(N2C(=S)N(c3ccc(C#N)c(C(F)(F)F)c3)C(=O)C2(C)C)cc1F` [Enzalutamide (MDV3100)], the Dose.FC.LYZ.S was found to be 0.176 log2 fold change in assay [1] (dose 0.08 uM), 0.276 log2 fold change in assay [1] (dose 0.40 uM), 0.077 log2 fold change in assay [1] (dose 2.00 uM) and 0.076 log2 fold change in assay [1] (dose 10.00 uM). The Dose.FC.CTG with ENR+CD organoids (dose 0.08 uM) is 0.195 log2 fold change; in the assay with ENR+CD organoids (dose 0.40 uM), 0.256 log2 fold change; in the assay with ENR+CD organoids (dose 2.00 uM), 0.076 log2 fold change; in the assay with ENR+CD organoids (dose 10.00 uM), 0.146 log2 fold change. In addition, the Z.CTG with ENR+CD organoids (dose 0.08 uM) amounted to 0.465; in the assay with ENR+CD organoids (dose 0.40 uM), 0.611; in the assay on ENR+CD organoids (dose 2.00 uM) it was 0.181; in the assay with ENR+CD organoids (dose 10.00 uM), 0.348. The Dose.FC.LYZ.NS in assay [2] (dose 0.08 uM) was determined as 0.162 log2 fold change; in assay [2] (dose 0.40 uM) it was 0.166 log2 fold change; in assay [2] (dose 2.00 uM) it was 0.024 log2 fold change; in assay [2] (dose 10.00 uM), 0.094 log2 fold change. Moreover, the Z.LYZ.NS is on record as 1.411 in assay [2] (dose 0.08 uM), 1.446 in assay [2] (dose 0.40 uM), 0.210 in assay [2] (dose 2.00 uM) and 0.820 in assay [2] (dose 10.00 uM).

For the compound `COc1cc2c(cc1O)CC[C@@H]1[C@@H]2CC[C@]2(C)[C@@H](O)CC[C@@H]12` [2-Methoxyestradiol (2-MeOE2)], the “SSMD.LYZ.S_Rep (strictly standardized mean difference)” value was 1.015 in assay [1] (setting [3]), 0.831 in assay [1] (setting [4]), 0.144 in assay [1] (setting [5]) and −1.135 in assay [1] (setting [6]). Further, the “Z.LYZ.S (standard z score)” value in assay [1] (setting [3]) is reported as 1.224; in assay [1] (setting [4]), 1.747; in assay [1] (setting [5]) it was 0.190; in assay [1] (setting [6]), −1.795. Moreover, the Dose.FC.LYZ.S is listed as 0.189 log2 fold change in assay [1] (dose 0.08 uM), 0.270 log2 fold change in assay [1] (dose 0.40 uM), 0.029 log2 fold change in assay [1] (dose 2.00 uM) and −0.278 log2 fold change in assay [1] (dose 10.00 uM). Further, the “SSMD.CTG.Rep (strictly standardized mean difference)” value in the assay with ENR+CD organoids (setting [3]) is given as 0.407; in the assay on ENR+CD organoids (setting [4]) it was 0.930; in the assay with ENR+CD organoids (setting [5]), 0.461; in the assay on ENR+CD organoids (setting [6]), −0.878. For the same compound, the Dose.FC.CTG in the assay with ENR+CD organoids (dose 0.08 uM) is recorded as 0.299 log2 fold change; in the assay on ENR+CD organoids (dose 0.40 uM) it was 0.401 log2 fold change; in the assay with ENR+CD organoids (dose 2.00 uM), 0.227 log2 fold change; with ENR+CD organoids (dose 10.00 uM), −0.672 log2 fold change. The “Z.CTG (standard z score)” value with ENR+CD organoids (dose 0.08 uM) is reported as 0.714; with ENR+CD organoids (dose 0.40 uM), 0.957; in the assay with ENR+CD organoids (dose 2.00 uM) it was 0.543; in the assay with ENR+CD organoids (dose 10.00 uM), −1.606. The “SSMD.LYZ.NS_Rep (strictly standardized mean difference)” value in assay [2] (setting [3]) is on record as 0.077; in assay [2] (setting [4]), 0.227; in assay [2] (setting [5]), 0.049; in assay [2] (setting [6]), −0.826. Moreover, the Dose.FC.LYZ.NS in assay [2] (dose 0.08 uM) is 0.021 log2 fold change; in assay [2] (dose 0.40 uM), 0.065 log2 fold change; in assay [2] (dose 2.00 uM), 0.005 log2 fold change; in assay [2] (dose 10.00 uM), −0.139 log2 fold change. Further, the “Z.LYZ.NS (standard z score)” value was 0.186 in assay [2] (dose 0.08 uM), 0.566 in assay [2] (dose 0.40 uM), 0.041 in assay [2] (dose 2.00 uM) and −1.209 in assay [2] (dose 10.00 uM).

`Cc1cc2c(C(C)C)c(O)c(O)c(C=O)c2c(O)c1-c1c(C)cc2c(C(C)C)c(O)c(O)c(C=O)c2c1O` [AT101]: the Dose.FC.LYZ.S in assay [1] (dose 0.08 uM) is listed as 0.004 log2 fold change; in assay [1] (dose 0.40 uM) it was −0.013 log2 fold change; in assay [1] (dose 2.00 uM), −0.085 log2 fold change; in assay [1] (dose 10.00 uM), −0.061 log2 fold change. Also, the Dose.FC.CTG in the assay with ENR+CD organoids (dose 0.08 uM) is reported as −0.198 log2 fold change; in the assay on ENR+CD organoids (dose 0.40 uM) it was 0.019 log2 fold change; in the assay on ENR+CD organoids (dose 2.00 uM), −0.216 log2 fold change; with ENR+CD organoids (dose 10.00 uM), −0.056 log2 fold change. In addition, the Dose.FC.LYZ.NS in assay [2] (dose 0.08 uM) is listed as −0.049 log2 fold change; in assay [2] (dose 0.40 uM) it was −0.068 log2 fold change; in assay [2] (dose 2.00 uM), −0.036 log2 fold change; in assay [2] (dose 10.00 uM) it was −0.052 log2 fold change. For the same compound, the “Z.LYZ.NS (standard z score)” value in assay [2] (dose 0.08 uM) is listed as −0.426; in assay [2] (dose 0.40 uM) it was −0.592; in assay [2] (dose 2.00 uM), −0.311; in assay [2] (dose 10.00 uM) it was −0.452.
